The text below walks through data of ChEMBL document CHEMBL3108755, “Dermacozines H-J isolated from a deep-sea strain of Dermacoccus abyssi from Mariana Trench sediments” (J Nat Prod, 2014).

SMILES strings stand for the structures.

The test concerns Radical scavenging activity. As to the kind of experiment: Antioxidant activity assessed as DPPH radical scavenging activity. In kind it is functional.

As a reminder, the IC50 is the concentration that inhibits the measured activity by half. Regarding `CC(=O)NC(CSc1ccc(C(N)=O)c2c1Nc1c(C(N)=O)cc(C(=O)c3ccccc3)cc1N2C)C(=O)O` (stereo not given), the IC50 was 19.6 µM.

As for `CN1c2cc(C=O)cc(C(=O)O)c2Nc2cccc(C(N)=O)c21`, the IC50 was determined as 18.8 µM.

In the case of `O=C1O[C@H]([C@@H](O)CO)C(O)=C1O` [ASCORBIC ACID], the IC50 stood at 12.1 µM.

With `CN1c2cc(C(=O)c3ccccc3)cc(C(=O)O)c2Nc2cccc(C(N)=O)c21`, the half-maximal inhibitory concentration (IC50) is 8.4 µM.

`CN1c2cccc(C(N)=O)c2Nc2c(C(=O)c3ccccc3)ccc(C(N)=O)c21`: the IC50 is 34.6 µM.
